Experimental data from patent US6375926B1, “Labelled elastase inhibitors” (Amersham International PLC, priority 1996, dated 2002).

Assays:
[1] = test system: isolated human white cells (granulocytes; monocytes + lymphocytes); assay: In vitro cell uptake in isolated human white cells; assay type: cell-based; conditions: for selectivity for granulocytes over a mixture of monocytes/lymphocytes: approximately equivalent numbers of monocytes/lymphocytes and granulocytes present; for % uptake in Gran. (granulocytes), WHITE CELLS / % uptake in Mon. (monocytes + lymphocytes), WHITE CELLS: isolated human white cells, 30 minutes at 37° C., radiolabelled compound
Procedure: Fresh blood (30-120 ml) was anticoagulated with 1.5% ACD solution and sedimented by addition of 2 ml Hespan per 10 ml blood for 90 minutes at room temperature. The leucocyte rich platelet rich plasma supernatant was removed and centrifuged at 150 g for 5 minutes, yielding a leucocyte rich pellet and platelet rich plasma (PRP). The PRP was centrifuged at 4000 g to pellet the platelets leaving a cell free plasma (CFP). The leucocyte pellet was resuspended in a 50:50 mixture of HBSS and CFP and incubated with the radioactive compound for 30 minutes at 37° C. Free radioactive material was then removed from the cells by addition of an excess of HBSS:CFP and centrifugation of the leucocytes at 150 g for 7 minutes. The supernatant and cell pellet were taken for radioactive counting for calculation of percentage cell uptake. The distribution of radioactivity within the cell pellet was assessed by separation of the cell types using Percoll density gradient centrifugation (38%, 55% and 73% Percoll in HBSS step gradients). The residual plasma and free activity was recovered from the top of the gradient, the mononuclear cells (lymphocytes and monocytes) from the interface between 38% and 55%, and the granulocytes were recovered from the interface between 55% and 73% Percoll.

[2] = target: T1, HLE (human leucocyte elastase) (Homo sapiens, UniProt P08246); assay: Measurement of HLE inhibition potency (kinact/Ki); assay type: biochemical; conditions: measured for non-radioactive iodine-labelled compounds and unlabelled chelate conjugates
T1 sequence (P08246 30-267): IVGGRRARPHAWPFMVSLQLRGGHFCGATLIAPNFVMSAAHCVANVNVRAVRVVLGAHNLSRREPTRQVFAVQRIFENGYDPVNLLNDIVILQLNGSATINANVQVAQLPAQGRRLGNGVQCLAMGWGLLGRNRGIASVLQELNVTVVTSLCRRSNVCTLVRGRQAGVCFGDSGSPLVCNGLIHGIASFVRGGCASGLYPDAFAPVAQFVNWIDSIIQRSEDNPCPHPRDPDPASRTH
Procedure: Inhibitor potency against HLE is described by the parameter kinact/Ki as previously reported [Knight et al., Biochem., 8160-8170, (1992)]. Lyophilised enzyme was reconstituted with TrisHCl buffer, 100 mM, 0.5M NaCl at 0.05 units/ml (approximately nanomolar concentration) in a final reaction volume of 1 ml to which was added methoxysucc-ala-ala-pro-val-pNA substrate (1 mM) and the elastase inhibitor dissolved in DMSO. The reaction was monitored by detecting the change of absorbance at 410 nm (hydrolysis of the substrate releasing p-nitroaniline) over a timescale of 25 minutes. Values of kinact/Ki were estimated according to the Knight et al method.

[3] = test system: mixed human red/white cells (granulocytes, monocytes + lymphocytes, erythrocytes); assay: In vitro cell uptake in mixed human red/white cells; assay type: cell-based; conditions: radiolabelled compound
Procedure: The radioactive compound was also incubated with an isolated leucocyte preparation to which an erythrocyte fraction had been added back. The packed erythrocytes obtained after blood sedimentation were washed twice with HBSS and then resuspended in their original blood volume with HBSS. Leucocytes obtained from 30 ml blood were resuspended in 0.5 ml erythrocyte suspension and 0.5 ml CFP. The cell suspension was then incubated with compound as above. Analysis of the distribution of activity in the cell pellet in the presence of red blood cells was carried out using Ficoll-Hypaque discontinuous density gradients (densities 1.04, 1.077 and 1.119 g/ml Histopaque steps).

[4] = test system: human whole blood (granulocytes, monocytes + lymphocytes, erythrocytes); assay: In vitro cell uptake in human whole blood; assay type: cell-based; conditions: 37° C. for 1 hour, radiolabelled compound
Procedure: The radioactive compound was added to 1 ml whole blood anticoagulated with ACD and incubated at 37° C. for 1 hour. The blood was diluted with HBSS and the cellular component separated by centrifugation. Distribution of activity within the cellular pellet was assessed by separation of cell fractions on Ficoll-Hypaque gradients as above.

| SMILES | Potency (1/(M·s)), kinact/Ki [2] [M⁻¹ s⁻¹] | kinact/KI ([2]; read-out: Potency (M/sec), kinact/Ki) [M⁻¹ s⁻¹] | selectivity for granulocytes over a mixture of monocytes/lymphocytes [1] | % uptake in Gran. (granulocytes), WHITE CELLS [1] [%] | % uptake in Mon. (monocytes + lymphocytes), WHITE CELLS [1] [%] | % uptake in Eryth. (erythrocytes), WHITE AND RED CELLS [3] [%] | % uptake in Gran. (granulocytes), WHITE AND RED CELLS [3] [%] | % uptake in Mon. (monocytes + lymphocytes), WHITE AND RED CELLS [3] [%] | % uptake in Eryth. (erythrocytes), WHOLE BLOOD [4] [%] | % uptake in Gran. (granulocytes), WHOLE BLOOD [4] [%] | % uptake in Mon. (monocytes + lymphocytes), WHOLE BLOOD [4] [%] |
| --- | --- | --- | --- | --- | --- | --- | --- | --- | --- | --- | --- |
| CCC1(CC)C(=O)N(C(=O)NCc2ccccc2)C1Oc1ccc(C(=O)NCC(C)(CNC(C)(C)C(C)=NO)CNC(C)(C)C(C)=NO)cc1 (racemic) [Compound 49, Conjugate Between Chelate, 3,3,6,9,9-pentamethyl-6-aminomethyl-4,8-diazaundecane-2,10-dionedioxime and 4-[(4-carboxy)phenoxy]-1-[benzylaminocarbonyl]-3,3-diethyl-2-azetidinone] | 20000 | – | some degree of selectivity for granulocytes | 47.3 | 10.1 | 18.0 | 17.5 | 13.9 | 14.3 | 6.9 | 24.6 |
| CCC1(CC)C(=O)N(C(=O)NCCC(=O)NCCN(CCNC(C)(C)C(C)=NO)CCNC(C)(C)C(C)=NO)C1Oc1ccc(C(=O)N2CCN(C)CC2)cc1 (racemic) [Compound 51, Conjugate Between Chelate, 3,3,11,11-Tetramethyl-7-aminomethyl-4,7,10-triazatridecane-2,12-dionedioxime and 4-[4-[[(4-Methyl)piperazin-1-yl]carbonyl]phenoxy]-1-[(2-carboxy)ethylaminocarbonyl]-3,3-diethyl-2-azetidinone] | 2500 | – | some degree of selectivity for granulocytes | 3.9 | 0.4 | 11.2 | 1.9 | 13.4 | 0.8 | 1.7 | 28.7 |
| CCC1(CC)C(=O)N(C(=O)NCc2ccccc2)C1Oc1ccc(C(=O)NCCN(CCNC(C)(C)C(C)=NO)CCNC(C)(C)C(C)=NO)cc1 (racemic) [Compound 52, Conjugate Between Chelate, 3,3,11,11-tetramethyl-7-aminomethyl-4,7,10-triazatridecane-2,12-dionedioxime and 4-[(4-carboxy)phenoxy]-1-[benzylaminocarbonyl]-3,3-diethyl-2-azetidinone] | 7800 | – | some degree of selectivity for granulocytes | 1.9 | 0.8 | 7.1 | 1.8 | 8.2 | 37.4 | 9.1 | 10.9 |
| CCC1(CC)C(=O)N(C(=O)NCc2ccc(I)cc2)C1Oc1ccc(C(=O)N2CCN(C)CC2)cc1 (single isomer, unassigned) [Compound 4b] | 1350 | – | some degree of selectivity for granulocytes | 4.8 | 0.9 | 1.6 | 3.3 | 3.8 | – | – | – |
| CCC1(CC)C(=O)N(C(=O)NCCc2cc(I)c(O)c(I)c2)C1S(=O)(=O)CCOC (centres unmarked) [Compound 17, 4-(2-Methoxyethylsulfonyl)-1-[(3,5-diiodo)(4-hydroxy)phenylethylaminocarbonyl]-3,3-diethyl-2-azetidinone] | – | 600 | some degree of selectivity for granulocytes | 0.4 | 0.0 | – | – | – | – | – | – |

Now from value to compound, other results behind:

| Potency (1/(M·s)), kinact/Ki [2] [M⁻¹ s⁻¹] | kinact/KI ([2]; read-out: Potency (M/sec), kinact/Ki) [M⁻¹ s⁻¹] | SMILES | selectivity for granulocytes over a mixture of monocytes/lymphocytes [1] | % uptake in Gran. (granulocytes), WHITE CELLS [1] [%] | % uptake in Mon. (monocytes + lymphocytes), WHITE CELLS [1] [%] | % uptake in Eryth. (erythrocytes), WHITE AND RED CELLS [3] [%] | % uptake in Gran. (granulocytes), WHITE AND RED CELLS [3] [%] | % uptake in Mon. (monocytes + lymphocytes), WHITE AND RED CELLS [3] [%] | % uptake in Eryth. (erythrocytes), WHOLE BLOOD [4] [%] | % uptake in Gran. (granulocytes), WHOLE BLOOD [4] [%] | % uptake in Mon. (monocytes + lymphocytes), WHOLE BLOOD [4] [%] |
| --- | --- | --- | --- | --- | --- | --- | --- | --- | --- | --- | --- |
| 58500 | – | CCC1(CC)C(=O)N(C(=O)NCc2ccc(C(=O)NCC(C)(CNC(C)(C)C(C)=NO)CNC(C)(C)C(C)=NO)cc2)C1Oc1ccc(C(=O)N2CCN(C)CC2)cc1 (racemic) [Compound 38, Conjugate Between Chelate, 3,3,6,9,9-Pentamethyl-6-aminomethyl-4,8-diazaundecane-2,10-dionedioxime and 4-[4-[[(4-Methyl)piperazin-1-yl]carbonyl]phenoxy]-1-[(4-carboxy)benzylaminocarbonyl]-3,3-diethyl-2-azetidinone] | some degree of selectivity for granulocytes | 75.5 | 8.5 | 28.4 | 32.5 | 6.7 | – | – | – |
| 1400 | – | CCC1(CC)C(=O)N(C(=O)NCCC(=O)NCC(C)(CNC(C)(C)C(C)=NO)CNC(C)(C)C(C)=NO)C1Oc1ccc(C(=O)N2CCN(C)CC2)cc1 (racemic) [Compound 42, Conjugate Between Chelate, 3,3,6,9,9-pentamethyl-6-aminomethyl-4,8-diazaundecane-2,10-dionedioxime and 4-[4-[[(4-Methyl)piperazin-1-yl]carbonyl]phenoxy]-1-[(2-carboxy)ethylaminocarbonyl]-3,3-diethyl-2-azetidinone] | some degree of selectivity for granulocytes | 8.4 | 1.2 | 18.9 | 2.5 | 6.9 | – | – | – |
| 5500 | – | CCC1(CC)C(=O)N(C(=O)NCCCCCC(=O)NCC(C)(CNC(C)(C)C(C)=NO)CNC(C)(C)C(C)=NO)C1Oc1ccc(C(=O)N2CCN(C)CC2)cc1 (racemic) [Compound 48, Conjugate Between Chelate, 3,3,6,9,9-pentamethyl-6-aminomethyl-4,8-diazaundecane-2,10-dionedioxime and 4-[4-[[(4-Methyl)piperazin-1-yl]carbonyl]phenoxy]-1-[(5-carboxy)pentylaminocarbonyl]-3,3-diethyl-2-azetidinone] | some degree of selectivity for granulocytes | 64.5 | 7.3 | 38.7 | 16.2 | 7.2 | 9.17 | 10.6 | 22.7 |
